Literature values as cited in US20110182952A1, “DRUG DELIVERY FROM EMBOLIC AGENTS” (BIOCOMPATIBLES UK LIMITED, priority 2004, published 2011).

Conditions: uterine artery embolization for leiomyomata

CCN(CC)CC(=O)Nc1c(C)cccc1C [lidocaine]
arterial spasm on intraarterial use: causes a large amount of spasm
